Measured values as given in US20120029041A1, “2-ARYL IMIDAZOLINE DERIVATIVES” (MSD K.K., priority 2009, published 2012).

target: T1, human QRFP receptor (GPR103) (Homo sapiens, UniProt Q96P65); test: QRFP43 Binding Inhibition Test; settings: membrane specimen from GPR103 expressing CHO-K1 cells, [125I] QRFP43, 25° C., 1 hour; read-out: IC50 for the specific [125I] QRFP43 binding
T1 construct: expressed in transfected cells; host or cells: NFAT β-Lactamase CHO-K1 host cells (Aurora); membrane specimen
T1 sequence (Q96P65 1-431): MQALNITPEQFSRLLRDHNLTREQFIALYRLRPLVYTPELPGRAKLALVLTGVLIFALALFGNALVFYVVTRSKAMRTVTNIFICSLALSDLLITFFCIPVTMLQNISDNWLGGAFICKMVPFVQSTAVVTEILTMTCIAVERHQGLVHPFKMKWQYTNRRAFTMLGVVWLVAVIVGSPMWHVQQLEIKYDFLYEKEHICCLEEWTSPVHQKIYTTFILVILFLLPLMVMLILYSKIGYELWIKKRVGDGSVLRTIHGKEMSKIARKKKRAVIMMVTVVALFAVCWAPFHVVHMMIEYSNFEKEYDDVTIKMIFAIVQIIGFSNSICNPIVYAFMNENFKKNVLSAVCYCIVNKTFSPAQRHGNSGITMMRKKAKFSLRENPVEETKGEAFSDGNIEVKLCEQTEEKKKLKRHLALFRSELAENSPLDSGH
Excerpt: The cDNA sequence [Accession No. NM_198179] that codes for human QRFP receptor (GPR103) was cloned into an expression vector pEF1V5-HisB (Invitrogen). The expression vector so prepared was transfected into NFAT [β-Lactamase CHO-K1 host cells (Aurora) to obtain QRFP receptor (GPR103) expressing cells, using the cationic lipid method [see Proceedings of the National Academy of Sciences of the United States of America, Vol. 84, p. 7413 (1987)].
The membrane specimen prepared from the QRFP receptor (GPR103) expressing cells was incubated at 25° C. for 1 hour with a test compound and 20,000 cpm [^125I] QRFP43 (PerkinElmer, Inc.) in an assay buffer (50 mM Tris-HCl, 1 mM EDTA, and 0.1% BSA, pH 7.4), followed by filtration using a glass filter GF/C. After washing with a 50 mM Tris-HCl (containing 2 mM EDTA, 10 mM MgCl2, and 0.04% Tween-20) buffer at pH 7.4, the radioactivity on the glass filter was determined using a gamma counter. Non-specific binding was measured in the presence of 1 μM peptide QRFP43, and 50% inhibition concentration (IC50 value) of the test compound for the specific [^125I] QRFP43 binding was determined [see Endocrinology, Vol. 131, p. 2090 (1992)].

Row | IC50 [nM] | SMILES
1 | 17 | Clc1ccc(C2=NCCN2C(c2ccccc2)c2ccccc2)cc1 [Example 2, 2-(4-Chlorophenyl)-1-(diphenylmethyl)-4,5-dihydro-1H-imidazole]
2 | 37 | Cc1ccc(C2=NCCN2C(c2ccccc2)c2ccccc2)cc1 [Example 5, 1-(Diphenylmethyl)-2-(4-methylphenyl)-4,5-dihydro-1H-imidazole]
3 | 11 | COc1ccc(C2=NCCN2C(c2ccccc2)c2ccccc2)cc1 [Example 6, 1-(Diphenylmethyl)-2-(4-methoxyphenyl)-4,5-dihydro-1H-imidazole]
